Results: patent publication US20210380547A1, “UREA DERIVATIVES FOR TREATING AND/OR PREVENTING CANCER” (CENTRE NATIONAL DE LA RECHERCHE SCIENTIFIQUE, priority 2018, published 2021)
Like-named read-outs stand apart in the source and are kept apart here.

Key:
A498 = assay: XTT cell viability assay, A498; format: cell-based, human; settings: Homo sapiens, A498; XTT assay (48 h); standard deviation of 10%; read-out: EC50 (μM) Kidney A498
Protocol: (§1) Fifty microliters of sodium 3′-[1-phenylaminocarbonyl)-3,4-tetrazolium]-bis(4-methoxy-6-nitro) benzene sulfonic acid hydrate (XTT) reagent was added to each well. The assay is based on the cleavage of the yellow tetrazolium salt XTT to form an orange formazan dye by metabolically active cells. The absorbance of the formazan product, reflecting cell viability, was measured at 490 nm. Each assay was performed in quadruplicate.
(§2) Compounds #1-#14 have been assayed as potential anti-proliferative agents against a panel of human breast head and neck, and kidney tumor cells and hematological malignancies, selected on the basis of their aggressiveness (e.g. incurable triple-negative breast cancer cells: MDA-MB-231; kidney ccRCC cells: RCC4, A498 and 786-O and 786R; head and neck cancer cells: CAL33, CAL33RR, CAL27, and CAL27RR; acute myeloid cell lines: OCI-AML2, OCI-AML3, MolM13, and MolM14; myelodysplastic cell line: SM1; and chronic myeloid cell line: CML). All these cell lines share as common denominator the expression of CXCR1 and CXCR2. The EC50 values have been measured by a XTT colorimetric assay, and compared to those of SB-225002, used as a reference; the results are listed in Table 1.

CAL27 = assay: XTT cell viability assay, CAL27; format: cell-based, human; settings: for EC50: XTT assay (48 h), standard deviation of 10%, read-out: EC50 (μM) Head and Neck CAL27
Protocol: A, B: Naive (Cal27, A), and cisplatine-resistant (Cal27R, B) Cal27 cells, were treated with compound #1 or cisplatine (1 to 10 μM) for 48 hr. Cell viability was measured by XTT assays;
C, D: Cal27 (C), cal27R (D), were treated with 2.5 μM compound #1, 2.5 μM cisplatin for 24 h to 96 h. The metabolism of cells was measured by XTT assay.
as §1, §2

OCI-AML3 = assay: XTT cell viability assay, OCI-AML3; format: cell-based, human; settings: Homo sapiens, OCI-AML-3; XTT assay (48 h); standard deviation of 10%
Protocol: as §1, §2

MolM14 = assay: XTT cell viability assay, MolM14; format: cell-based, human; settings: Homo sapiens, MOLM-14; XTT assay (48 h); standard deviation of 10%; read-out: EC50 (μM) AML MolM14
Protocol: as §1, §2

[1] = system: healthy human fibroblasts (FHN); assay: FACS analysis of cell death markers (AV, PI), healthy fibroblasts; format: cell-based; settings: 5 μM, 48 h
Protocol: FIG. 1: Observation by FACS analyses of early (Annexin AV) and late (Propidium Iodide, PI) apoptosis markers expressed by healthy and malignant cells after treatment with compounds #1 and #2 at 5 μM. CT: negative control.
Apoptosis analysis: After stimulation, cells were washed with ice-cold PBS and were stained with the annexin-V-fluos staining kit (Roche, Meylan, France) according to the manufacturer's procedure. Fluorescence was measured by using the FL2 (AV) and FL3 (propidium iodide, PI) channels of a fluorescence-activated cell sorter apparatus (Calibur cytometer).
To complete these XTT assays, malignant (ccRCC and hematological) and healthy (human fibroblasts FHN) cells have been grown with compounds #1 or #2, and after 48h the expression of cell death markers (AV and PI) has been quantified by FACS analyses (FIG. 1).

786-O and 786-R cells = assay: Clonogenicity (colony formation) assay, RCC cells; format: cell-based, human; settings: 1 μM, 10 days
Protocol: G: Clonogenicity assays: RCC cells ([…] and 786-R) were treated with compound #1 or sunitinib (1 μM) and colored with Giemsa blue after 10 days (representative results of an experiment repeated trice);
Cells (5000 cells per condition) were treated or not with compound #1 and sunitinib, and cisplatin. Colonies were detected after 10 days of culture. Cells were then washed, fixed at room temperature for 20 min with 3% paraformaldehyde (PFA; Electron Microscopy Sciences) and colored by GIEMSA (Sigma)

[2] = system: VEGFA-dependent HuVEC migration; assay: Boyden chamber migration assay, VEGFA-dependent; format: cell-based; settings: VEGFA (50 ng/ml), same concentration
Protocol: CXCL7 or VEGFA-stimulated chemotaxis assays were monitored using modified Boyden chambers containing polycarbonate membranes (8-μm pores, Transwell; Corning, Sigma). Cells were seeded on the upper side of the filters and chambers were placed on 24-well plates containing CXCL7 (50 ng/ml) or VEGFA (50 ng/ml). Cells were allowed to migrate for 24 hr at 37° C. in 5% CO2. Migratory cells on the lower membrane surface were fixed in 3% paraformaldehyde, stained with 0.1% crystal violet.

[3] = Pharmacokinetics after oral gavage in mice; format: in vivo; settings: oral gavage 50 mg/Kg
Protocol: Compound #1 was then formulated at 7.6 mg/mL, and administrated by oral gavage at 50 mg/Kg (n=12 mice) and pharmacokinetic parameters have been measured (Table 2).

**Q.** What does the source list for `O=C(Nc1cccc(Cl)c1)Nc1nc2ccc([N+](=O)[O-])cc2s1` [Compound #1, 1-(3-chlorophenyl)-3-(6-nitrobenzo[d]thiazol-2-yl)urea]?
**A.** EC50 (A498): 2.5 µM; time of treatment to total inhibition of proliferation (CAL27; Cal27 cells, 2.5 μM, XTT 24 h to 96 h): approximately 70 hours; EC50 (CAL27; Homo sapiens, CAL-27, 48 h): 2 µM; EC50 (CAL27): 3 µM; EC50 (OCI-AML3): 4 µM; EC50 (MolM14): 4 µM; apoptosis of healthy human fibroblasts (FHN) [1]: no increased apoptosis over the control experiment; clonogenicity (786-O and 786-R cells): exerts a cytostatic effect; activity on VEGFA-stimulated HuVEC motility [2]: does not exert any visible activity; half-life ([3]; mouse, in vivo): > 3.17 h; AUC ([3]; mouse, in vivo, po, 50 mg/kg, read-out: AUC lastPO (converted)): ~1420 ng·h/mL; Tmax [3]: 0.5 h; AUC lastPO ([3]; 50 mg/kg): 84965 ± 9367 ng·min/mL
